# Laboratory results taken from US20070117743A1, “New antitumoral compounds” (priority 2003, published 2007).
# Like-named read-outs stand apart in the source and are kept apart here. Where a SMILES comes first, the peptide text is derived from it. Bridges are numbered along the chain shown (N, C = ends). [ ]: non-standard residue; d: D form. The star is where a group is joined. Hexanoyl(4S-Me) = CC[C@H](C)CCC(=O)*; d(aIle) = CC[C@H](C)[C@@H](N)C(=O)O; d(aThr) = C[C@@H](O)[C@@H](N)C(=O)O; Hexanoyl(5-Me) = CC(C)CCCC(=O)*; Tic = O=C(O)[C@@H]1Cc2ccccc2CN1; 2Thi = N[C@@H](Cc1cccs1)C(=O)O; Phg = N[C@H](C(=O)O)c1ccccc1; Orn = NCCC[C@H](N)C(=O)O; Dhb = C/C=C(\N)C(=O)O
# What was measured:
# Assay type in all cases: cell-based, human
# DU-145 = assay: SRB colorimetric assay of cell growth and viability, DU-145; conditions: 48 hours exposure
# LoVo = assay: SRB colorimetric assay of cell growth and viability, LoVo; conditions: 48 hours exposure; for CC50: read-out: LC50 LOVO
# A-549 = assay: SRB colorimetric assay of cell growth and viability, A-549; conditions: 48 hours exposure; for GI50: read-out: GI50 A-549; for CC50: read-out: LC50 A-549
# HeLa = assay: SRB colorimetric assay of cell growth and viability, HeLa; conditions: 48 hours exposure; for CC50: read-out: LC50 HELA
# IGROV-ET = assay: SRB colorimetric assay of cell growth and viability, IGROV-ET; conditions: 48 hours exposure; for CC50: read-out: LC50 IGROV-ET
# K-562 = assay: SRB colorimetric assay of cell growth and viability, K-562; conditions: 48 hours exposure; for CC50: read-out: LC50 K-562
# PANC-1 = assay: SRB colorimetric assay of cell growth and viability, PANC-1; conditions: 48 hours exposure; for CC50: read-out: LC50 PANC-1
# SK-MEL-28 = assay: SRB colorimetric assay of cell growth and viability, SK-MEL-28; conditions: 48 hours exposure; for CC50: read-out: LC50 MEL-28
# IGROV-1 = assay: SRB colorimetric assay of cell growth and viability, IGROV-1; conditions: 48 hours exposure
# HT-29 = assay: SRB colorimetric assay of cell growth and viability, HT-29; conditions: 48 hours exposure; for GI50: read-out: GI50 HT-29; for CC50: read-out: LC50 HT-29
# LoVo-Dox = assay: SRB colorimetric assay of cell growth and viability, LoVo-Dox; conditions: 48 hours exposure; for CC50: read-out: LC50 LOVO-DOX
# Method in brief: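 SRB staining (0.4% wt/vol in 1% acetic acid, 10 min, room temperature) of cells fixed with 50% TCA follows a 48-hour exposure to compound. Plating density is 5×10^3 cells/well, and the OD is taken at 490 nm.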
# HeLa-APL = assay: SRB colorimetric assay of cell growth and viability, HeLa-APL; conditions: 48 hours exposure; for CC50: read-out: LC50 HELA-APL
# SK-BR-3 = assay: SRB colorimetric assay of cell growth and viability, SK-BR-3; conditions: 48 hours exposure
# Description: The finality of this assay is to interrupt the growth of a “in vitro” tumor cell culture by means a continued exhibition of the cells to the sample to be testing.
# This form of the assay employs 96 well cell culture microplates of 9 mm diameter (Faircloth, 1988; Mosmann, 1983). Most of the cell lines are obtained from American Type Culture Collection (ATCC) derived from different human cancer types.
# Cells are maintained in RPMI 1640 10% FBS, supplemented with 0.1 g/l penicillin and 0.1 g/l streptomycin sulfate and then incubated at 37° C., 5% CO2 and 98% humidity. For the experiments, cells were harvested from subconfluent cultures using trypsin and resuspended in fresh medium before plating.
# Cells are seeded in 96 well microtiter plates, at 5×10^3 cells per well in aliquots of 195 μL medium, and they are allowed to attach to the plate surface by growing in drug free medium for 18 hours. Afterward, samples are added in aliquots of 5 μL in a ranging from 10 to 10^−8 μg/mL, dissolved in DMSO:EtOH:PBS (0.5:0.5:99). After 48 hours exposure, the antitumor effect are measured by the SRB methodology: cells are fixed by adding 50 μL of cold 50% (wt/vol) trichloroacetic acid (TCA) and incubating for 60 minutes at 4° C. Plates are washed with deionized water and dried. One hundred μL of SRB solution (0.4% wt/vol in 1% acetic acid) is added to each microtiter well and incubated for 10 minutes at room temperature. Unbound SRB is removed by washing with 1% acetic acid. Plates are air dried and bound stain is solubilized with Tris buffer. Optical densities are read on a automated spectrophotometric plate reader at a single wavelength of 490 nm.
# The values for mean+/− SD of data from triplicate wells are calculated. Some parameters for cellular responses can be calculated: GI=growth inhibition, TGI=total growth inhibition (cytostatic effect) and LC=cell killing (cytotoxic effect).
smiles,measurement,setting,value
"C/C=C1\NC(=O)[C@H](c2ccccc2)NC(=O)[C@@H](C(C)C)NC(=O)[C@@H]([C@@H](C)CC)NC(=O)[C@H](NC(=O)[C@H](NC(=O)[C@H](CCCN)NC(=O)[C@H]2CCCN2C(=O)[C@H](NC(=O)[C@@H](NC(=O)[C@@H](NC(=O)[C@H](NC(=O)CCCC(C)C)C(C)C)[C@@H](C)O)C(C)C)C(C)C)[C@@H](C)CC)[C@@H](C)OC(=O)[C@H](C(C)C)NC1=O [Compound 87, [Phg^3]-KF] ({Hexanoyl(5-Me)}-[dV]TV[dV][dP][Orn][d(aIle)][d(aThr)][d(aIle)][dV][Phg][Dhb]V; ester 8-C)",GI50,DU-145; DU-145,1900 nM
same,LC50 (concentration causing 50% net cell kill),DU-145; DU-145,1900 nM
same,TGI DU-145,DU-145; DU-145,1.90E−06 Molar
same,GI50,LoVo; LOVO,957 nM
same,TGI LOVO,LoVo; LOVO,1.90E−06 Molar
same,CC50,LoVo; LOVO,1900 nM
same,TGI A-549,A-549; A-549,1.90E−06 Molar
same,GI50,A-549; A-549,1900 nM
same,CC50,A-549; A-549,1900 nM
same,GI50,HeLa; HELA,1900 nM
same,TGI HELA,HeLa; HELA,1.90E−06 Molar
same,CC50,HeLa; HELA,1900 nM
same,GI50,IGROV-ET; IGROV-ET,1290 nM
same,TGI IGROV-ET,IGROV-ET; IGROV-ET,1.90E−06 Molar
same,CC50,IGROV-ET; IGROV-ET,1900 nM
same,GI50,K-562; K-562,1900 nM
same,TGI K-562,K-562; K-562,1.90E−06 Molar
same,CC50,K-562; K-562,1900 nM
same,GI50,PANC-1; PANC-1,1900 nM
same,TGI PANC-1,PANC-1; PANC-1,1.90E−06 Molar
same,CC50,PANC-1; PANC-1,1900 nM
same,GI50,SK-MEL-28; MEL-28,1900 nM
same,TGI MEL-28,SK-MEL-28; MEL-28,1.90E−06 Molar
same,CC50,SK-MEL-28; MEL-28,1900 nM
same,GI50,IGROV-1; IGROV,919 nM
same,LC50 (concentration causing 50% net cell killing),IGROV-1; IGROV,1900 nM
same,TGI IGROV,IGROV-1; IGROV,1.90E−06 Molar
same,TGI HT-29,HT-29; HT-29,1.90E−06 Molar
same,GI50,HT-29; HT-29,1580 nM
same,CC50,HT-29; HT-29,1900 nM
same,GI50,LoVo-Dox; LOVO-DOX,513 nM
same,TGI LOVO-DOX,LoVo-Dox; LOVO-DOX,1.32E−06 Molar
same,CC50,LoVo-Dox; LOVO-DOX,1900 nM
same,GI50,HeLa-APL; HELA-APL,1900 nM
same,TGI HELA-APL,HeLa-APL; HELA-APL,1.90E−06 Molar
same,CC50,HeLa-APL; HELA-APL,1900 nM
same,GI50,SK-BR-3; SK-BR-3,748 nM
same,LC50,SK-BR-3; SK-BR-3,1870 nM
same,TGI SK-BR-3,SK-BR-3; SK-BR-3,1.19E−06 Molar
"C/C=C1\NC(=O)[C@@H]2Cc3ccccc3CN2C(=O)[C@@H](C(C)C)NC(=O)[C@@H]([C@@H](C)CC)NC(=O)[C@H](NC(=O)[C@H](NC(=O)[C@H](CCCN)NC(=O)[C@H]2CCCN2C(=O)[C@H](NC(=O)[C@@H](NC(=O)[C@@H](NC(=O)[C@H](NC(=O)CC[C@@H](C)CC)C(C)C)[C@@H](C)O)C(C)C)C(C)C)[C@@H](C)CC)[C@@H](C)OC(=O)[C@H](C(C)C)NC1=O [Compound 77, [Tic^3, (4S)-MeHex^14]-KF] ({Hexanoyl(4S-Me)}-[dV]TV[dV][dP][Orn][d(aIle)][d(aThr)][d(aIle)][dV][Tic][Dhb]V; ester 8-C)",GI50,DU-145; SRB,3630 nM
same,LC50 (concentration causing 50% net cell kill),DU-145; SRB,6740 nM
same,TGI DU-145,DU-145; SRB,6.71E−06 Molar
same,GI50,LoVo; SRB,913 nM
same,TGI LOVO,LoVo; SRB,1.76E−06 Molar
same,CC50,LoVo; SRB,3400 nM
same,TGI A-549,A-549; SRB,2.58E−06 Molar
same,GI50,A-549; SRB,1520 nM
same,CC50,A-549; SRB,4400 nM
same,GI50,HeLa; SRB,1430 nM
same,TGI HELA,HeLa; SRB,2.29E−06 Molar
same,CC50,HeLa; SRB,3660 nM
same,GI50,IGROV-ET; SRB,1420 nM
same,TGI IGROV-ET,IGROV-ET; SRB,2.34E−06 Molar
same,CC50,IGROV-ET; SRB,3860 nM
same,GI50,K-562; SRB,17 nM
same,TGI K-562,K-562; SRB,3.99E−06 Molar
same,CC50,K-562; SRB,6710 nM
same,GI50,PANC-1; SRB,6740 nM
same,TGI PANC-1,PANC-1; SRB,6.74E−06 Molar
same,CC50,PANC-1; SRB,6740 nM
same,GI50,SK-MEL-28; SRB,1580 nM
same,TGI MEL-28,SK-MEL-28; SRB,3.41E−06 Molar
same,CC50,SK-MEL-28; SRB,6710 nM
same,GI50,IGROV-1; SRB,1610 nM
same,LC50 (concentration causing 50% net cell killing),IGROV-1; SRB,4260 nM
same,TGI IGROV,IGROV-1; SRB,2.62E−06 Molar
same,TGI HT-29,HT-29; SRB,2.21E−06 Molar
same,GI50,HT-29; SRB,1230 nM
same,CC50,HT-29; SRB,3970 nM
same,GI50,LoVo-Dox; SRB,271 nM
same,TGI LOVO-DOX,LoVo-Dox; SRB,8.32E−07 Molar
same,CC50,LoVo-Dox; SRB,2140 nM
same,GI50,HeLa-APL; SRB,1570 nM
same,TGI HELA-APL,HeLa-APL; SRB,2.53E−06 Molar
same,CC50,HeLa-APL; SRB,4070 nM
same,GI50,SK-BR-3; SRB,873 nM
same,LC50,SK-BR-3; SRB,5510 nM
same,TGI SK-BR-3,SK-BR-3; SRB,2.19E−06 Molar
"C/C=C1\NC(=O)[C@H](Cc2cccs2)NC(=O)[C@@H](C(C)C)NC(=O)[C@@H]([C@@H](C)CC)NC(=O)[C@H](NC(=O)[C@H](NC(=O)[C@H](CCCN)NC(=O)[C@H]2CCCN2C(=O)[C@H](NC(=O)[C@@H](NC(=O)[C@@H](NC(=O)[C@H](NC(=O)CC[C@@H](C)CC)C(C)C)[C@@H](C)O)C(C)C)C(C)C)[C@@H](C)CC)[C@@H](C)OC(=O)[C@H](C(C)C)NC1=O [Compound 76, [Thi^3, (4S)-MeHex^14]-KF] ({Hexanoyl(4S-Me)}-[dV]TV[dV][dP][Orn][d(aIle)][d(aThr)][d(aIle)][dV][2Thi][Dhb]V; ester 8-C)",GI50,DU-145; SRB,1200 nM
same,LC50 (concentration causing 50% net cell kill),DU-145; SRB,3750 nM
same,TGI DU-145,DU-145; SRB,2.12E−06 Molar
same,GI50,LoVo; SRB,243 nM
same,TGI LOVO,LoVo; SRB,7.21E−07 Molar
same,CC50,LoVo; SRB,2160 nM
same,TGI A-549,A-549; SRB,2.60E−06 Molar
same,GI50,A-549; SRB,1530 nM
same,CC50,A-549; SRB,4430 nM
same,GI50,HeLa; SRB,1180 nM
same,TGI HELA,HeLa; SRB,2.01E−06 Molar
same,CC50,HeLa; SRB,3450 nM
same,GI50,IGROV-ET; SRB,1000 nM
same,TGI IGROV-ET,IGROV-ET; SRB,1.85E−06 Molar
same,CC50,IGROV-ET; SRB,3410 nM
same,GI50,K-562; SRB,1710 nM
same,TGI K-562,K-562; SRB,4.01E−06 Molar
same,CC50,K-562; SRB,6740 nM
same,GI50,PANC-1; SRB,5930 nM
same,TGI PANC-1,PANC-1; SRB,6.74E−06 Molar
same,CC50,PANC-1; SRB,6740 nM
same,GI50,SK-MEL-28; SRB,1540 nM
same,TGI MEL-28,SK-MEL-28; SRB,2.52E−06 Molar
same,CC50,SK-MEL-28; SRB,4140 nM
same,GI50,IGROV-1; SRB,1180 nM
same,LC50 (concentration causing 50% net cell killing),IGROV-1; SRB,3870 nM
same,TGI IGROV,IGROV-1; SRB,2.14E−06 Molar
same,TGI HT-29,HT-29; SRB,1.74E−06 Molar
same,GI50,HT-29; SRB,842 nM
same,CC50,HT-29; SRB,3590 nM
same,GI50,LoVo-Dox; SRB,147 nM
same,TGI LOVO-DOX,LoVo-Dox; SRB,2.61E−07 Molar
same,CC50,LoVo-Dox; SRB,463 nM
same,GI50,HeLa-APL; SRB,1350 nM
same,TGI HELA-APL,HeLa-APL; SRB,2.28E−06 Molar
same,CC50,HeLa-APL; SRB,3860 nM
same,GI50,SK-BR-3; SRB,313 nM
same,LC50,SK-BR-3; SRB,2040 nM
same,TGI SK-BR-3,SK-BR-3; SRB,6.26E−07 Molar
